Data from patent US10689702B2, “Biomarkers for diabetes” (The Chinese University of Hong Kong, priority 2012, dated 2020).

Tested on: cancer in type 2 diabetic patients
Assay: Hazard ratios of drug use for cancer, 5-year prospective cohort (Hong Kong Diabetes Registry)
Type: in vivo, Chinese type 2 diabetic patients
Conditions: patients who did not use the drug 2.5 yr prior to enrolment
[1] = Model 1, adjusted for propensity scores
[2] = Model 2, adjusted for risk factors, use of other medications during follow-up and propensity score

**Q.** Which “HR(95% CI) for cancer, users versus non user” value [1] does the source give for Insulin here?
**A.** The value was 0.48(0.31-0.73).

**Q.** What about the “HR(95% CI) for cancer, users versus non user” value [2] of the same compound?
**A.** Its value is 0.58(0.38-0.89).

**Q.** What does the source list for `CN(C)C(=N)N=C(N)N` [Metformin]?
**A.** HR(95% CI) for cancer, users versus non user [1]: 0.38(0.25-0.56); HR(95% CI) for cancer, users versus non user [2]: 0.39(0.25-0.61)

**Q.** Which results are given for `O=C1CSC(=O)N1` [TZDs, Thiazolidinedione]?
**A.** HR(95% CI) for cancer, users versus non user [1]: 0.12(0.03-0.50); HR(95% CI) for cancer, users versus non user [2]: 0.18(0.04-0.72)
